Measurements as given in PMC9127750, “Structure-based design of CDC42 effector interaction inhibitors for the treatment of cancer” (Cell reports, 2022).

System: WM3248 melanoma cells, 486 antibodies
Assay: Reverse phase protein arrays (RPPA);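 as to RPPA ACC1.R.C: ratio of treated to vehicle (0 µM) normalized linear protein signal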;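 as to RPPA AMPK.a2 pS345.R.V: ratio of treated to vehicle (0 µM) normalized linear protein signal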;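 as to RPPA AMPKa pT172.R.C: ratio of treated to vehicle (0 µM) normalized linear protein signal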;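 as to RPPA ASNS.R.V: ratio of treated to vehicle (0 µM) normalized linear protein signal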;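 as to RPPA Akt1.R.V: ratio of treated to vehicle (0 µM) normalized linear protein signal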;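 as to RPPA Atg5.R.C: ratio of treated to vehicle (0 µM) normalized linear protein signal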
Type: cell-based, Human
Conditions: 10 uM
Excerpt: Pellets were snap frozen in liquid nitrogen and shipped to MD Anderson Cancer Center core RPPA facility for RPPA analysis (Table S5). Three biological replicates for each sample were generated.
Nomenclatures on the RPPA heatmaps: name_of_antibody.species_of_antibody.status_of_antibody. V - antibody validated; C - validation of antibody in progress; Q - antibody nonspecific; E – under evaluation; antibodies raised in M - mouse, G - goat, R - rabbit, or T - rat.

## CN(C)c1cccc(Nc2cc(-c3ccccc3)nc(C3CCNCC3)n2)c1 [ARN22089, N1,N1-dimethyl-N3-(6-phenyl-2-(piperidin-4-yl)pyrimidin-4-yl)benzene-1,3-diamine]
  RPPA PAK_pS474_S602_S560.R.V Average: 1.085
  RPPA PAK_pT423_T402.R.C Average: 0.987
  RPPA PAR.R.C Average: 0.480
  RPPA PARG.R.C Average: 0.970
  RPPA PARP.R.V Average: 1.017
  RPPA PAX6.R.V Average: 1.003
  RPPA PCNA.M.C Average: 0.987
  RPPA PD.1.R.V Average: 1.058
  RPPA PD.L1.R.C Average: 0.976
  RPPA PDH.M.V Average: 1.031
  RPPA PDHA1.R.V Average: 0.986
  RPPA PDHK1.R.C Average: 0.952
  RPPA PDK1_pS241.R.V Average: 0.942
  RPPA PEA.15.R.V Average: 0.922
  RPPA PERK.R.V Average: 1.010
  RPPA PGM1.R.V Average: 0.998
  RPPA PHLPP.R.V Average: 1.083
  RPPA PI3K.p85.R.C Average: 1.062
  RPPA PI3K.p110.a.R.C Average: 0.904
  RPPA PI3K.p110.b.M.C Average: 0.987
  RPPA PKA.a.R.V Average: 0.877
  RPPA PKC.a.b.II_pT638_T641.R.V Average: 0.910
  RPPA PKC.b.II_pS660.R.V Average: 1.018
  RPPA PKCa.R.V Average: 0.991
  RPPA PKM2.R.C Average: 0.940
  RPPA PLC.gamma1.R.V Average: 1.083
  RPPA PLC.gamma1_pS1248.R.V Average: 0.999
  RPPA PLK1.R.C Average: 0.905
  RPPA PR.R.V Average: 1.064
  RPPA PRAS40.M.C Average: 1.049
  RPPA PRAS40_pT246.R.V Average: 0.957
  RPPA Patched.R.C Average: 0.971
  RPPA Paxillin.R.C Average: 0.830
  RPPA Pdcd4.R.C Average: 0.977
  RPPA Porin.M.V Average: 1.020
  RPPA p21.R.C Average: 1.010
  RPPA p27.Kip1.R.C Average: 1.046
  RPPA p27_pT157.R.C Average: 1.014
  RPPA p27_pT198.R.V Average: 1.168
  RPPA p38.MAPK.R.V Average: 0.975
  RPPA p38.a.M.V Average: 1.028
  RPPA p53.R.C Average: 0.908
  RPPA p70.S6K1.R.V Average: 0.918
  RPPA p70.S6K_pT389.R.V Average: 0.996
  RPPA p90RSK_pT573.R.C Average: 1.053
10W1
  RPPA A.Raf.R.V: 0.962
  RPPA ACC1.R.C: 1.063
  RPPA ACC_pS79.R.V: 0.772
  RPPA ACLY_pS455.R.V: 1.099
  RPPA ACSL1.R.V: 0.988
  RPPA ACVRL1.R.C: 1.018
  RPPA ADAR1.M.V: 1.194
  RPPA ALKBH5.R.V: 0.984
  RPPA AMPK.a2_pS345.R.V: 1.028
  RPPA AMPKa.R.C: 0.972
  RPPA AMPKa_pT172.R.C: 0.665
  RPPA AR.R.V: 0.830
  RPPA ASNS.R.V: 0.786
  RPPA ATM_pS1981.R.V: 1.131
  RPPA ATP5A.M.C: 0.979
  RPPA ATP5H.R.V: 1.113
  RPPA ATRX.R.C: 1.033
  RPPA ATR_pS428.R.C: 0.934
  RPPA AceCS1.R.V: 0.931
  RPPA Akt1.R.V: 0.892
  RPPA Akt1_pS473.R.V: 0.970
  RPPA Akt2.R.V: 0.959
  RPPA Akt2_pS474.R.C: 1.062
  RPPA Akt.R.V: 0.917
  RPPA Akt_pS473.R.V: 1.128
  RPPA Akt_pT308.R.V: 0.936
  RPPA Ambra1_pS52.R.C: 1.051
  RPPA Annexin.I.M.V: 1.059
  RPPA Annexin.VII.M.V: 1.077
  RPPA Atg3.R.V: 0.970
  RPPA Atg4B.R.C: 0.890
  RPPA Atg5.R.C: 0.920
  RPPA Atg7.R.V: 0.855
  RPPA Aurora.A.R.C: 0.735
  RPPA Aurora.ABC_pT288_pT232_pT198.R.C: 0.857
  RPPA Aurora.B.R.V: 1.102
  RPPA Axl.R.V: 0.724
